According to patent publication US20260306463A1, “SIK INHIBITORS TO TREAT CHRONIC KIDNEY DISEASE” (The General Hospital Corporation, priority 2023, published 2026):

Assays:
[1] = test system: YAP/TAZ responsive reporter; assay: YAP/TAZ responsive luciferase reporter assay; assay type: cell-based, mouse (NIH3T3 cells); details: 24 hours; for TGFß-stimulated YAP/TAZ reporter activity: TGFß stimulation
Protocol: FIGS. 14A-14E. SIK pathway controls YAP/TAZ-dependent myofibroblast activation in kidney Gli1 cells. KGlil cells were treated as indicated for 48 hours followed by (A) immunoblotting and (B) RT-qPCR. (C) KGlil cells were treated±TGFß (5 ng/mL) or verteporfin (1 μM) for 48 hours followed by imnunoblotting. (D) Luciferase assay from cells were transfected with a YAP/TAZ responsive reporter. SIK inhibitor and forskolin both block basal and TGFß-stimulated-YAP/TAZ reporter activity. (E) Top, KGlil cells were treated for 24 hours as indicated followed by immunoblotting. Bottom, kidney lysates from adenine diet CKD mice were analyzed by immunoblotting as indicated.
To assess the signal of YAP/TAZ responsive reporter, the mouse fibroblast cell line NIH3T3 cells were transfected 24 hours after plating at 50,000 cells/ml in a 10 cm dish by using 15 μl Polyjet transfection reagent (SignaGen Laboratories, SL100688) and 5 μg of 8xGTIIC-luciferase construct. 48 hours after, the cells were then trypsinized and plated on a black 96-well plate and treated the next day for 24 hours. The luciferase and renilla signals were read using Renilla Luciferase Assay System kit (Promega, E2810) and EnVision plate reader (PerkinElmer).

kidney = details: literature (ref. 21); cited from earlier work
human kidney organoids = assay: cisplatin injury of human kidney organoids: immunostaining, organoid size; assay type: cell-based; details: intermittent cisplatin, 5 treatments
Protocol: FIG. 7. SK-124 preserves human kidney organoid integrity in cisplatin injury model. Human kidney organoids derived from H9 embryonic stem cells were treated with intermittent cisplatin (5 separate treatments) based on published protocols along with the indicated agent. Organoids were cryo-sectioned and immuno-stained with the indicated markers. The top panels show low power images and the bottom panels focus on regions of proximal tubule cells. The graph measures the mean diameter of organoids in the control (no cisplatin), cisplatin+DMSO, and cisplatin+SK-124 treatment groups.
BJFF human induced pluripotent stem cells (hPSCs) were maintained on Geltrexcoated (Thermo Fisher Scientific) plates using StemFit Basic04 Complete (Ajinomoto Co. Inc.) as previously reported(25). The cells were passaged weekly using Accutase (STEMCELL Technologies) for dissociation and Y27632 (Tocris) for adhesion. Directed differentiation of hPSCs into kidney organoids has been published elsewhere (29). Briefly, hPSCs were differentiated into metanephric mesenchyme cells on day 8 by a three-step directed differentiation protocol. Metanephric mesenchyme was transferred into suspension culture in 96-well ultralow adhesion plates (Coming) and further differentiated into kidney organoids, as previously reported(25). Quality control measures of SIX2 immunostaining on day 8 of differentiation and CDH1, LTL, PODXL, CD146, MEIS1/2/3, and SYTOX-blue staining on day 21 were performed on all batches of kidney organoids to limit batch-to-batch heterogeneity. Kidney organoids were maintained in 200 μl of basal media consisting of Advanced RPMI (Thermo Fisher Scientific) and GlutaMAX (Thermo Fisher Scientific) in 96-well plates, as previously reported. Media changes were conducted three times weekly with removal of 90 [l and addition of 100 μl of fresh basal media.
For cisplatin induced injury, day 49 organoids were treated with 5 μM cisplatin in basal media after full media change. After 24 hours, full media exchanges were performed. This 24-hour treatment was performed twice a week, on day 52-53, day 56-57, day 59-60, and day 63-64 as well, for a total of five cisplatin treatments. Samples were obtained for RT-qPCR and immunostaining immediately following each 24-hour treatment with cisplatin, and from corresponding controls.
Following the treatment, the organoids were collected and immediately fixed in 4% PFA in PBS for 1 hour at room temperature, submerged in 30% sucrose overnight at 4° C., then embedded in O.C.T. Compound (4585. Fisher HealthCare). Subsequently, […] frozen sections were prepared via cryo-sectioning by a cryostat. After 1 hr blocking at room temperature, the sections were treated overnight at 4° C. with primary antibodies in antibody dilution buffer (ADB) with biotinylated LTL (1:200, B-1325, Vector), rat anti-CDH1 (1:500, ab11512, Abcam), goat anti-PODXL (1:500, AF1658, R&D Systems), as well as the antibody of interest, either mouse anti-p21 (1:200, NBP2-43697, Novus Biologicals), or rabbit anti-γH2AX (1:100, 2577, Cell Signaling) antibodies. For the optimum labeling of LTL by biotin/streptavidin interaction, the Streptavidin/Biotin Blocking Kit (SP-2002, Vector Laboratories) was applied according to the manufacturer's instructions. After washing, the samples were stained for 1 hour at RT with the nuclear dye-SYTOX Blue (1:500. S 11348, Invitrogen) and the corresponding secondary antibodies in ADB such as streptavidin-AF750 (1:500, S21384, Invitrogen), donkey anti-rat IgG-AF594 (1:500, A21209, Invitrogen), donkey anti-goat IgG-AF555 (1:500, A21432, Invitrogen), and donkey anti-rabbit IgG-AF488 (1:500, A21206, Invitrogen) for γH2AX or donkey anti-mouse IgG-AF488 (1:500, A21202, Invitrogen) for p21 antibodies as well as mouse anti-Meisl/⅔ (1:200, sc-101850, SantaCruz) conjugated antibody, and slides were mounted with Vectashield antifade mounting medium (H1000, Vector Laboratories). […]

Row | Compound | basal YAP/TAZ reporter activity [1] | TGFß-stimulated YAP/TAZ reporter activity [1] | anti-fibrotic effects in kidney (kidney) | patterns of cisplatin-induced injury (human kidney organoids)
1 | 2-[2,6-Dimethoxy-4-[7-(1-methylpyrazol-4-yl)imidazo[1,2-a]pyridin-3-yl]phenyl]-5-ethyl-1,3,4-oxadiazole [SK-124] | block | block |  | 
2 | C=C1/C(=C\C=C2/CCC[C@]3(C)[C@@H]([C@H](C)CCCC(C)(C)O)CC[C@@H]23)C[C@@H](O)C[C@@H]1O [calcitriol, 1,25-dihydroxy-vitamin D, reference compound] |  |  | anti-fibrotic effects in kidney | minimal effects
3 | C=C[C@@]1(C)CC(=O)[C@]2(O)[C@@]3(C)[C@@H](O)CCC(C)(C)[C@@H]3[C@H](O)[C@H](OC(C)=O)[C@@]2(C)O1 [forskolin, reference compound] | block | block |  | 
